We go through 14 molecules from ChEMBL document CHEMBL1135052, “7-Methoxyfuro[2,3-c]pyridine-4-carboxamides as PDE4 inhibitors: a potential treatment for asthma” (Bioorg Med Chem Lett, 2002).

The target of data set [1] is T1, Phosphodiesterase 4 (Homo sapiens, UniProt P27815+Q08499+Q07343+Q08493). Kind of data set: (§1) Inhibition of human phosphodiesterase 4 from U937 cells. The class given is cell-based. To be noted: U-937, concentration not given here.
Data set [2] deals with T1, Phosphodiesterase 4. The description is as §1. It counts as cell-based. The settings on record: u-937.
For data set [3], the target named is T2, Phosphodiesterase 3 (Homo sapiens) (UniProt Q14432+Q13370). Put plainly: Inhibition of human platelet phosphodiesterase 3 at 1 uM.
Data set [4] in a line: Maximum plsma drug concentration in guinea pig when 3 mg/kg dose was given perorally. The class given is ADME, organism-based, Cavia porcellus. Further details: dose 3 mg/kg, route oral. To be noted: plasma, po.
The nature of data set [5]: Bioavailability in guinea pig was tested. The settings on record: in vivo, read-out: Bioavailabiility. The class given is ADME, organism-based, Cavia porcellus.
The target in data set [6] is T2, Phosphodiesterase 3 (Homo sapiens). Put plainly: Inhibition of human platelet Phosphodiesterase 3 at 20 uM.
Data set [7] is described as follows: AUC tested in guinea pig when 3 mg/kg dose was given perorally. Further details: dose 3 mg/kg, route oral. The class given is ADME, organism-based, Cavia porcellus, Plasma. The settings on record: in vivo, po.
Data set [8] has as its target Phosphodiesterase 4 (Rattus norvegicus) (UniProt P14270+P14646+P14644+P54748). Put plainly: Inhibition of rolipram binding to rat brain at 1 uM. It counts as tissue-based.
Data set [9] addresses T2, Phosphodiesterase 3 (Homo sapiens). Put plainly: Inhibition of human platelet Phosphodiesterase 3 at 20 uM (inactive).
For data set [10] the target is unchanged. Kind of data set: Inhibition of human platelet Phosphodiesterase 3 at 1 uM (inactive).

The structures appear in SMILES notation. The source made the active and inactive calls.

A word on the inhibition: it is the percentage by which the read-out fell short of the control. In the case of `CCc1cc2c(C(=O)Nc3cc[n+]([O-])cc3OC)cnc(OC)c2o1`, at Phosphodiesterase 4 [1], the inhibition came to 21%.

For orientation: IC50 means the midpoint of a concentration-inhibition curve. Lower therefore signals greater potency in that assay. In turn, `COc1ncc(C(=O)Nc2c(Cl)c[n+]([O-])cc2Cl)c2cc(-c3cccnc3)oc12` gave an IC50 against Phosphodiesterase 4 [2] of 62 nM. `COc1ncc(C(=O)Nc2c(Cl)c[n+]([O-])cc2Cl)c2cc(C3CCOC3)oc12` (centres undefined): the IC50 against Phosphodiesterase 4 [2] came to 23 nM. Against the preceding molecule, the IC50 is about 2.7-fold lower. In turn, `CCc1cc2c(C(=O)Nc3cc[n+]([O-])cc3Cl)cnc(OC)c2o1` gave an IC50 on Phosphodiesterase 4 [2] of 120 nM. The molecule also returned an inhibition in data set [3] of 39%.

As a reminder, the Cmax is the highest concentration seen after dosing. For `CCc1cc2c(C(=O)Nc3c(Cl)c[n+]([O-])cc3Cl)cnc(OC)c2o1`, in [4], the Cmax worked out at 1410 ng/mL. Further, in data set [5], the bioavailability came out at 54%. This molecule also showed an IC50 against Phosphodiesterase 4 [2] of 14 nM. Moreover, the inhibition in data set [6] stood at 32%. The AUC in data set [7] was 4942 ng/mL. At Phosphodiesterase 4 [2], `CCc1cc2c(C(=O)Nc3c(Cl)c[n+]([O-])cc3Cl)cnc(OC(F)F)c2o1` came in with an IC50 of 3.7 nM. In turn, `COc1ncc(C(=O)Nc2c(Cl)c[n+]([O-])cc2Cl)c2cc(C3CCOCC3)oc12` showed an IC50 against Phosphodiesterase 4 [2] of 47 nM. The inhibition in data set [6] was found to be 3%.

With `CCc1cc2c(C(=O)Nc3cc[n+]([O-])cc3C)cnc(OC)c2o1`, at Phosphodiesterase 4 [2], the IC50 turned out to be 120 nM. `CCc1cc2c(C(=O)Nc3c(C)cc(C#N)cc3Cl)cnc(OC)c2o1`: the IC50 against Phosphodiesterase 4 [2] was 230 nM.

As to `CCc1cc2c(C(=O)Nc3c(Cl)c[n+]([O-])cc3Cl)cnc(O)c2o1`, the inhibition stood at 61% in data set [8] and 22% against Phosphodiesterase 4 [1]. Consider `COc1ncc(C(=O)Nc2c(Cl)c[n+]([O-])cc2Cl)c2cc(C3(OC)CCN(C(=O)OC(C)(C)C)CC3)oc12`, for which, at Phosphodiesterase 4 [2], the IC50 was found to be 48 nM. For the same molecule, in data set [9], the inhibition entry is “inactive”. Molecule `CCc1cc2c(C(=O)Nc3c(F)cccc3F)cnc(OC)c2o1` showed an IC50 against Phosphodiesterase 4 [2] of 66 nM.

Turning to `COCc1cc2c(C(=O)Nc3c(Cl)c[n+]([O-])cc3Cl)cnc(OC)c2o1`, the IC50 against Phosphodiesterase 4 [2] was determined as 47 nM. Also, the inhibition result in [9] is “inactive”. Take `CCc1cc2c(C(=O)Nc3ncncc3C#N)cnc(OC)c2o1`: the inhibition result in data set [10] was “inactive”. This molecule also had an IC50 against Phosphodiesterase 4 [2] of 140 nM.
